From patent publication US12662518B2, “Engineered peptide and peptide mimetic compositions and methods” (The Wistar Institute of Anatomy and Biology, priority 2019, dated 2026)
Entries after “also recorded” stand apart in the source; their conditions may differ. Ends that are not written are not given here. Peptide text beside a SMILES is read from it.

Key:
[1] = test system: prostate cancer cell types (LNCaP, C4-2B, PC3, DU145); assay: cell death of prostate cancer cells, CellTox reactivity; assay type: cell-based, human; conditions: for tumor cell death / viability: PC3 / prostate cancer cells, 0-50 μM
Method: (§2) Cell death and apoptosis. […] The various cell-permeable MFF peptides were examined for induction of cytotoxicity using a CellTOX Green cytotoxicity assay kit (Promega). Briefly, 10^4 normal or tumor cells in 100 μl complete medium were plated on white opaque 96-well plate. […] Lysis Solution in the assay kit was used as cytotoxicity control (100% cell death) and treatment with PBS was used as a control for 100% cell viability.

[2] = test system: normal prostatic epithelial cells (BPH-1); assay: cell death of normal prostatic epithelial cells; assay type: cell-based, human; conditions: 0-40 μM, 2 h
Excerpt: (§1) Cell death and apoptosis.

[3] = test system: NSCLC A549 and H460 or breast adenocarcinoma MDA-231 and MCF-7 cells; assay: NSCLC and breast adenocarcinoma cell lines, TMRE flow cytometry and CellTox cell death; assay type: cell-based, human; conditions: A549, H460, MDA-231, MCF-7 cells, 10-25 μM
[4] = test system: PC3 cells; assay: mitochondrial membrane potential in tumor cells, TMRE, time-lapse videomicroscopy and flow cytometry; assay type: cell-based, human; conditions: 10 μM, single-cell time-lapse videomicroscopy or whole cell population
Method: Analysis of mitochondrial membrane potential. […] In some experiments, PC3 cells were treated with cell-permeable scrambled peptide or cell-permeable MFF #8-11 peptide, washed three times in PBS, pH 7.4, and analyzed on a FACSCalibur flow cytometer, with the TMRE signal as FL1. Intact cells were gated in the FSC/SSC plot to exclude small debris. Cells treated with 20 μM FCCP 10 min prior to TMRE staining were used as a negative control. The resulting FL1 data were plotted on a histogram. For quantification of membrane potential of purified mitochondria, mitochondria isolated from PC3 cells (50 μg) were suspended in 400 μl of SB buffer (0.2 M sucrose, 10 mM Tris-MOPS, pH 7.4, 5 mM succinate, 1 mM sodium phosphate, 10 μM EGTA-Tris, 2 μM rotenone). […] After two washes with SB buffer, mitochondria were recovered by centrifugation at 6000×g for 10 min, suspended in 100 μl of SB buffer and mitochondrial membrane potential was quantified on a florescence microplate reader (Ex/Em=535/595 nm, Beckman Coulter). […]
For time-lapse videomicroscopy, PC3 cells (2×10^4) growing in high optical-quality glass bottom chambered 8-well cell culture slides (MatTek Corporation) were stained with 100 nM TMRE (Abcam) and 50 nM MitoTracker Green FM (Life Technologies) for 20 min. […] A minimum of 100 cells were analyzed from 2 independent experiments. […]

[5] = test system: DU145 or PC3 cells; assay: release of HMGB1 and cyclophilin A from tumor cells, Western blotting; assay type: cell-based, human; conditions: marker of necrosis
[6] = test system: patient-derived breast adenocarcinoma organoids; assay: patient-derived breast adenocarcinoma organoids, Ki-67 and cleaved caspase-3 immunohistochemistry; assay type: cell-based, human; conditions: 50-100 μM, 24 h
[7] = test system: patient-derived NSCLC organoids; assay: patient-derived NSCLC organoids, Ki-67 and cleaved caspase-3 immunohistochemistry; assay type: cell-based, human; conditions: 50-100 μM, 24 h
[8] = test system: normal human foreskin fibroblasts (HFF); assay: cell death of normal fibroblasts; assay type: cell-based; conditions: 0-40 μM
Excerpt: as §1

[9] = test system: patient-derived glioblastoma (GBM) neurospheres; assay: patient-derived glioblastoma (GBM) neurospheres, calcein / To-Pro viability; assay type: cell-based; conditions: 10-50 μM, 1, 3 or 24 h; scrambled 50 μM
Excerpt: Glioblastoma (GBM) neurospheres. Primary, patient-derived GBM neurospheres were isolated and maintained in culture essentially as described (Senft, D. & Ronai, Z. A. Regulators of mitochondrial dynamics in cancer. Curr Opin Cell Biol 39, 43-52 (2016)). Tissue samples were obtained from chemotherapy- or radiotherapy-naïve patients with confirmed histological diagnosis of WHO grade IV glioma (GBM) undergoing treatment at the Neurosurgery Division of Fondazione IRCCS Ca' Granda Ospedale Maggiore Policlinco (Milan, Italy). Written informed consent was obtained from all patients. Neurospheres were cyto-spinned on charged slides (Thermo Scientific, Waltham, Mass.) and treated with cell-permeable scrambled peptide (50 μM) or cell-permeable retro-inverso D-enantiomer MFF peptide (10-50 μM) for up to 24 h. Control-normalized changes in cell viability under the various conditions were determined by the ratio of Calcein (alive) and To-Pro (dead) staining and fluorescence microscopy (Eclipse Ti-E, Nikon Instruments, Florence, Italy).

[10] = test system: glioblastoma LN229 cells; assay: cell death of glioblastoma cells; assay type: cell-based, human
Excerpt: as §1

[11] = test system: CypD^−/− MEF; assay: cell death of CypD-/- MEF; assay type: cell-based, mouse; conditions: 25 μM
Excerpt: as §1

[12] = test system: PC3 cells; assay: cytochrome c release from tumor cells, Western blotting; assay type: cell-based, human; conditions: supernatants vs mitochondrial extracts
[13] = test system: immortalized wild type (WT) mouse embryonic fibroblasts (MEF); assay: cell death of wild type MEF; assay type: cell-based; conditions: 10-50 μM
Excerpt: as §1

[14] = test system: drug-sensitive and drug-resistant melanoma cells; conditions: isogenic pairs, CellTox reactivity
Method: as §2

cell-permeable scrambled peptide: cell-permeable control scrambled peptide #8-11 (SEQ ID NO: 22) (SSQLRYLARSQRITIQLIAGS; also: cell-permeable moiety)
tumor cell death / viability [1]: did not kill normal or prostate cancer cells | cell death of normal prostatic epithelial cells [2]: did not kill normal or prostate cancer cells | tumor cell death ([3]; CellTox): had no effect | mitochondrial membrane potential ([3]; TMRE): had no effect | loss of mitochondrial membrane potential [4]: not | HMGB1 release from tumor cells [5]: had no effect on HMGB1 release; also recorded: did not induce HMGB1 release | apoptosis / cell death markers (cleaved caspase-3^+ cells), breast adenocarcinoma organoids [6]: had no effect | cell proliferation (Ki-67^+ cells), breast adenocarcinoma organoids [6]: had no effect | apoptosis / cell death markers (cleaved caspase-3^+ cells), NSCLC organoids [7]: had no effect | cell proliferation (Ki-67^+ cells), NSCLC organoids [7]: had no effect | cell death of normal fibroblasts (HFF) [8]: did not kill normal or prostate cancer cells | cytotoxicity for patient-derived GBM neurospheres (loss of cell viability) [9]: not | killing of GBM LN229 cells ([10]; 0-40 μM): did not cause LN229 cell killing

CC[C@H](C)[C@H](NC(=O)CNC(=O)[C@H](CCCNC(=N)N)NC(=O)[C@H](C)NC(=O)[C@H](CO)NC(=O)[C@H](CCCCN)NC(=O)[C@H](CCSC)NC(=O)[C@H](CCCNC(=N)N)NC(=O)[C@H](CCCNC(=N)N)NC(=O)[C@H](CC(N)=O)NC(=O)[C@H](CCC(N)=O)NC(=O)[C@H](Cc1ccccc1)NC(=O)[C@H](Cc1c[nH]c2ccccc12)NC(=O)[C@@H](NC(=O)[C@H](CCCCN)NC(=O)[C@@H](NC(=O)[C@H](CCC(N)=O)NC(=O)[C@H](CCCNC(=N)N)NC(=O)CCCCCNC(=O)CCCC[C@@H]1SC[C@@H]2NC(=O)N[C@@H]21)[C@@H](C)CC)[C@@H](C)CC)C(=O)N[C@@H](CC(C)C)C(=O)N[C@@H](CO)C(=O)N[C@@H](CC(C)C)C(=O)N[C@H](C(=O)N[C@@H](CCC(N)=O)C(=O)N[C@@H](CO)C(=O)N[C@@H](CO)C(=O)N[C@H](C(=O)N[C@@H](CCCNC(=N)N)C(=O)N[C@@H](CCCNC(=N)N)C(=O)N[C@@H](C)C(=O)N[C@@H](Cc1ccc(O)cc1)C(=O)N[C@@H](CCC(N)=O)C(=O)N[C@@H](CCC(N)=O)C(=O)N[C@H](C(=O)N[C@@H](CC(C)C)C(=O)O)[C@@H](C)CC)[C@@H](C)O)[C@@H](C)CC [cell-permeable MFF peptide #8-11] (HELM PEPTIDE1{[O=C1N[C@H]2[C@H](CS[C@H]2CCCCC(=O)[*:2])N1].[O=C(CCCCCN[*:1])[*:2]].R.Q.I.K.I.W.F.Q.N.R.R.M.K.S.A.R.G.I.L.S.L.I.Q.S.S.T.R.R.A.Y.Q.Q.I.L}$$$$V2.0; N-terminus and C-terminus assumed)
tumor cell death / viability [1]: efficiently killed tumor cells in a time- and concentration-dependent manner | IC50 ([1]; prostate cancer cell types, read-out: IC50, cell killing): ~10 µM | cell death of CypD^−/− MEF [11]: abolished cell death | loss of mitochondrial membrane potential [4]: induced acute loss of mitochondrial membrane potential; also recorded: induced sudden loss of mitochondrial membrane potential | HMGB1 release from tumor cells [5]: induced the release of HMGB1 and cyclophilin A (CypA) | cyclophilin A (CypA) release from tumor cells [5]: induced the release of HMGB1 and cyclophilin A (CypA) | cytochrome c release from tumor cells [12]: induced cytochrome c release | IC50 ([10]; glioblastoma, read-out: IC50, cell killing): ~10 µM | cell death of WT MEF [13]: killed immortalized wild type (WT) mouse embryonic fibroblasts (MEF) in a concentration-dependent manner; also recorded: efficiently killed WT MEF in a time- and concentration-dependent response | cell death of drug-sensitive and drug-resistant melanoma cells [14]: comparably killed
